US11052092B2, “N-{[2-(piperidin-1-yl)phenyl](phenyl)methyl}-2-(3-oxo-3,4-dihydro-2H-1,4-benzoxazin-7-yl)acetamide derivatives and related compounds as ROR-gamma modulators for treating autoimmune diseases” (Genfit, priority 2017, dated 2021)
Structures can show the parent of a compound that is named as a salt.

melting point [°C] | SMILES
97 | Cc1ccc(C(NC(=O)C2(c3ccc4c(c3)CS(=O)(=O)N4)CC2)c2ccc(C)o2)c(C)c1 (stereo not shown) (as salt: HCl) [Cpd. 63, N-[(2,4-dimethylphenyl)(5-methylfuran-2-yl)methyl]-1-(2,2-dioxo-1,3-dihydro-2,1-benzothiazol-5-yl)cyclopropane-1-carboxamide]
199 | Cc1ccc(C(NC(=O)C2(c3ccc4c(c3)OCC(=O)N4)CC2)c2ccc(Cl)o2)c(N2CCCCC2)c1 (stereo not shown) (as salt: HCl) [Cpd. 145, N-[(5-chlorofuran-2-yl)[4-methyl-2-(piperidin-1-yl)phenyl]methyl]-1-(3-oxo-3,4-dihydro-2H-1,4-benzoxazin-7-yl)cyclopropane-1-carboxamide]
97 | Cc1ccc(C(NC(=O)Cc2ccc3c(c2)CCC3O)c2ccc(C)o2)c(N2CCCCC2)c1 (stereo not shown) (as salt: sodium) [Cpd. 52, 2-(1-hydroxy-2,3-dihydro-1H-inden-5-yl)-N-{[4-methyl-2-(piperidin-1-yl)phenyl](5-methylfuran-2-yl)methyl}acetamide]
39 | Cc1ccc(C(NC(=O)Cc2ccc3c(ccn3CCC(=O)OC(C)(C)C)c2)c2ccc(C)o2)c(C)c1 (stereo not shown) (as salt: HCl) [Cpd. 99, tert-butyl 3-[5-({[(2,4-dimethylphenyl)(5-methylfuran-2-yl)methyl]carbamoyl}methyl)-1H-indol-1-yl]propanoate]
50 | Cc1ccc(C(NC(=O)Cc2ccc3c(ccn3CCC(=O)OC(C)(C)C)c2)c2ccc(C)o2)c(N2CCCCC2)c1 (stereo not shown) (as salt: HCl) [Cpd. 96, tert-butyl 3-{5-[({[4-methyl-2-(piperidin-1-yl)phenyl](5-methylfuran-2-yl)methyl}carbamoyl)methyl]-1H-indol-1-yl}propanoate]
71 | Cc1ccc(C(NC(=O)Cc2ccc3c(c2)C(=O)CC3)c2ccc(C)o2)c(N2CCCCC2)c1 (stereo not shown) (as salt: HCl) [Cpd. 67, N-{[4-methyl-2-(piperidin-1-yl)phenyl](5-methylfuran-2-yl)methyl}-2-(3-oxo-2,3-dihydro-1H-inden-5-yl)acetamide]
75 | CC(=O)N1CCc2cc(C3(C(=O)NC(c4ccc(C)o4)c4ccc(C)cc4C)CC3)ccc21 (stereo not shown) (as salt: HCl) [Cpd. 126, 1-(1-acetyl-2,3-dihydro-1H-indol-5-yl)-N-[(2,4-dimethylphenyl)(5-methylfuran-2-yl)methyl]cyclopropane-1-carboxamide]
115 | COc1ccc(C(NC(=O)C2(c3ccc4c(c3)OCS(=O)(=O)N4)CC2)c2ccc(C)o2)c(Br)c1 (stereo not shown) (as salt: HCl) [Cpd. 147, N-[(2-bromo-4-methoxyphenyl)(5-methylfuran-2-yl)methyl]-1-(2,2-dioxo-1,3-dihydro-4,2,1-benzoxathiazin-6-yl)cyclopropane-1-carboxamide]
103 | CCSc1nc2cc(CC(=O)NC(c3ccccc3)c3ccc(C)cc3Br)ccc2[nH]1 (stereo not shown) (as salt: hydrochloride) [Cpd. 92, N-[(2-bromo-4-methylphenyl)(phenyl)methyl]-2-[2-(ethylsulfanyl)-1H-1,3-benzodiazol-5-yl]acetamide]
89 | Cc1ccc(C(NC(=O)C2(c3ccc4c(c3)OCC(=O)N4)CC2)c2ccc(C)o2)c(C)c1 (stereo not shown) (as salt: HCl) [Cpd. 59, N-[(2,4-dimethylphenyl)(5-methylfuran-2-yl)methyl]-1-(3-oxo-3,4-dihydro-2H-1,4-benzoxazin-7-yl)cyclopropane-1-carboxamide]
86 | Cc1ccc(C(NC(=O)C2(c3ccc4c(c3)CS(=O)(=O)N4)CC2)c2ccc(Cl)o2)c(C)c1 (stereo not shown) (as salt: HCl) [Cpd. 87, N-[(5-chlorofuran-2-yl)(2,4-dimethylphenyl)methyl]-1-(2,2-dioxo-1,3-dihydro-2,1-benzothiazol-5-yl)cyclopropane-1-carboxamide]
70 | Cc1ccc(C(NC(=O)C2(c3ccc4c(c3)CCN4C(=O)C3CC3)CC2)c2ccc(C)o2)c(C)c1 (stereo not shown) (as salt: HCl) [Cpd. 95, 1-(1-cyclopropanecarbonyl-2,3-dihydro-1H-indol-5-yl)-N-[(2,4-dimethylphenyl)(5-methylfuran-2-yl)methyl]cyclopropane-1-carboxamide]

More lines, now with the values behind:

SMILES | melting point [°C]
Cc1ccc(C(NC(=O)C2(c3ccc4c(c3)CS(=O)(=O)C4)CC2)c2ccc(C)o2)c(C)c1 (stereo not shown) (as salt: HCl) [Cpd. 74, N-[(2,4-dimethylphenyl)(5-methylfuran-2-yl)methyl]-1-(2,2-dioxo-1,3-dihydro-2-benzothiophen-5-yl)cyclopropane-1-carboxamide] | 74
CC(C)=C1C(=O)Nc2ccc(CC(=O)NC(c3ccc(C)o3)c3ccc(C)cc3N3CCCCC3)cc21 (stereo not shown) (as salt: HCl) [Cpd. 55, N-{[4-methyl-2-(piperidin-1-yl)phenyl](5-methylfuran-2-yl)methyl}-2-[2-oxo-3-(propan-2-ylidene)-2,3-dihydro-1H-indol-5-yl]acetamide] | 172
CNS(=O)(=O)c1c[nH]c2ccc(CC(=O)NC(c3ccc(C)o3)c3ccc(C)cc3N3CCCCC3)cc12 (stereo not shown) (as salt: HCl) [Cpd. 115, N-{[4-methyl-2-(piperidin-1-yl)phenyl](5-methylfuran-2-yl)methyl}-2-[3-(methylsulfamoyl)-1H-indol-5-yl]acetamide] | 119
Cc1ccc(C(NC(=O)Cc2ccc3c(c2)CS(=O)(=O)N3CC2CCOCC2)c2ccc(C)o2)c(N2CCCCC2)c1 (stereo not shown) (as salt: HCl) [Cpd. 167, N-{[4-methyl-2-(piperidin-1-yl)phenyl](5-methylfuran-2-yl)methyl}-2-[1-(oxan-4-ylmethyl)-2,2-dioxo-1,3-dihydro-2,1-benzothiazol-5-yl]acetamide] | 85
Cc1ccc(C(NC(=O)Cc2ccc3c(ccn3CCC(=O)OC(C)(C)C)c2)c2ccc(C)o2)c(Br)c1 (stereo not shown) (as salt: HCl) [Cpd. 100, tert-butyl 3-[5-({[(2-bromo-4-methylphenyl)(5-methylfuran-2-yl)methyl]carbamoyl}methyl)-1H-indol-1-yl]propanoate] | 149
Cc1ccc(C(NC(=O)C2(c3ccc4c(c3)CS(=O)(=O)N4CC3CCOCC3)CC2)c2ccc(C)o2)c(N2CCCCC2)c1 (stereo not shown) (as salt: HCl) [Cpd. 162, N-{[4-methyl-2-(piperidin-1-yl)phenyl](5-methylfuran-2-yl)methyl}-1-[1-(oxan-4-ylmethyl)-2,2-dioxo-1,3-dihydro-2,1-benzothiazol-5-yl]cyclopropane-1-carboxamide] | 87
Cc1ccc(C(NC(=O)C2(c3ccc4c(c3)CN(S(C)(=O)=O)C4)CC2)c2ccc(C)o2)c(N(C)C)c1 (stereo not shown) (as salt: HCl) [Cpd. 76, N-{[2-(dimethylamino)-4-methylphenyl](5-methylfuran-2-yl)methyl}-1-(2-methanesulfonyl-2,3-dihydro-1H-isoindol-5-yl)cyclopropane-1-carboxamide] | 70
Cc1ccc(C(NC(=O)C2(c3ccc4c(c3)CN(S(C)(=O)=O)C4)CC2)c2ccc(C)o2)c(C)c1 (stereo not shown) (as salt: HCl) [Cpd. 65, N-[(2,4-dimethylphenyl)(5-methylfuran-2-yl)methyl]-1-(2-methanesulfonyl-2,3-dihydro-1H-isoindol-5-yl)cyclopropane-1-carboxamide] | 67
CCN1c2ccc(C3(C(=O)NC(c4ccc(C)o4)c4ccc(C)cc4C)CC3)cc2CS1(=O)=O (stereo not shown) (as salt: HCl) [Cpd. 132, N-[(2,4-dimethylphenyl)(5-methylfuran-2-yl)methyl]-1-(1-ethyl-2,2-dioxo-1,3-dihydro-2,1-benzothiazol-5-yl)cyclopropane-1-carboxamide] | 68
Cc1ccc(C(NC(=O)C2(c3ccc4c(ccn4CCC(=O)O)c3)CC2)c2ccc(C)o2)c(N2CCCCC2)c1 (stereo not shown) (as salt: sodium) [Cpd. 154, 3-{5-[1-({[4-methyl-2-(piperidin-1-yl)phenyl](5-methylfuran-2-yl)methyl}carbamoyl)cyclopropyl]-1H-indol-1-yl}propanoic acid] | 90
COc1ccc(C(NC(=O)Cc2ccc3c(ccn3CCC(=O)OC(C)(C)C)c2)c2ccc(C)o2)c(N2CCCCCC2)c1 (stereo not shown) (as salt: HCl) [Cpd. 110, tert-butyl 3-{5-[({[2-(azepan-1-yl)-4-methoxyphenyl](5-methylfuran-2-yl)methyl}carbamoyl)methyl]-1H-indol-1-yl}propanoate] | 57
Cc1ccc(C(NC(=O)C2(c3ccc4c(c3)CS(=O)(=O)N4)CC2)c2ccc(C)o2)c(N(C)C)c1 (stereo not shown) (as salt: HCl) [Cpd. 71, N-{[2-(dimethylamino)-4-methylphenyl](5-methylfuran-2-yl)methyl}-1-(2,2-dioxo-1,3-dihydro-2,1-benzothiazol-5-yl)cyclopropane-1-carboxamide] | 107
CC(=O)N1Cc2ccc(C3(C(=O)NC(c4ccc(C)o4)c4ccc(C)cc4C)CC3)cc2C1 (stereo not shown) (as salt: HCl) [Cpd. 127, 1-(2-acetyl-2,3-dihydro-1H-isoindol-5-yl)-N-[(2,4-dimethylphenyl)(5-methylfuran-2-yl)methyl]cyclopropane-1-carboxamide] | 72
Cc1ccc(C(NC(=O)C2(c3ccc4c(c3)OCC(=O)N4)CC2)c2ccc(C)o2)c(Br)c1 (stereo not shown) (as salt: HCl) [Cpd. 135, N-[(2-bromo-4-methylphenyl)(5-methylfuran-2-yl)methyl]-1-(3-oxo-3,4-dihydro-2H-1,4-benzoxazin-7-yl)cyclopropane-1-carboxamide] | 82
Cc1ccc(C(NC(=O)Cc2ccc3[nH]cc(C(=O)N4CCOCC4)c3c2)c2ccc(C)o2)c(N2CCCCC2)c1 (stereo not shown) (as salt: HCl) [Cpd. 120, N-{[4-methyl-2-(piperidin-1-yl)phenyl](5-methylfuran-2-yl)methyl}-2-[3-(morpholine-4-carbonyl)-1H-indol-5-yl]acetamide] | 124
Cc1ccc(C(NC(=O)Cc2ccc3c(ccn3S(C)(=O)=O)c2)c2ccc(C)o2)c(N2CCCCC2)c1 (stereo not shown) (as salt: ammonium) [Cpd. 106, 2-(1-methanesulfonyl-1H-indol-5-yl)-N-{[4-methyl-2-(piperidin-1-yl)phenyl](5-methylfuran-2-yl)methyl}acetamide] | 83
